Experimental data from patent US8722849B2, “Polypeptides” (Novo Nordisk A/S, priority 2011, dated 2014).
Converted amounts (≈) assume the structure as drawn. Read-outs that look alike come from different tables or passages of the source. Starred links: 1 amine or outer side, 2 acyl side, 3 side chain; linkers in the order of their positions; H or OH if unused. Positions of bridges follow the written chain, without caps; N, C: chain ends. Residues, ends and D or L forms follow the SMILES beside them. Groups on a side chain read outwards from the residue. *: point of attachment. C20 diacid = O=C(O)CCCCCCCCCCCCCCCCCCC(=O)*; γGlu = O=C(O)[C@H](CCC(=O)[*:2])N[*:1]

Legend:
food intake = experiment: Assay (I) efficacy testing on appetite (food intake), ad libitum fed rat model; format: in vivo, Sprague Dawley (SD) rats; conditions: 3 nmol/kg
From the text: In the following examples reference is made to the following Assays: • Assay (I)— Experimental protocol for efficacy testing on appetite using an ad libitum fed rat model • ASSAY (II)a—Functional assay—Human calcitonin and amylin receptor assay • ASSAY (II)b—Functional assay—Rat calcitonin and rat amylin receptor assays • ASSAY (III)—ThT fibrillation assays for the assessment of physical stability of protein formulations • ASSAY (IV)—Determination of solubility • ASSAY (V)—Determination of binding to the human amylin receptor • ASSAY (VI)—Determination of the binding to the rat amylin receptor • ASSAY (VII)—Determination of binding to the human calcitonin receptor • ASSAY (VIII)—Determination of binding to the rat calcitonin receptor • ASSAY (IX)—pK—Determination of T % in mini-pig • ASSAY (X)—pK—Determination of T % in rat ASSAY (I)—Experimental Protocol for Efficacy Testing on Appetite Using an Ad Libitum Fed Rat Model
Sprague Dawley (SD) rats from Taconic Europe, Denmark are used for the experiments. The rats have a body weight 200-250 g at the start of experiment. The rats arrive at least 10-14 days before start of experiment to allow acclimatization to experimental settings. During this period the animals are handled at least 2 times. After arrival rats are housed individually for one week in a reversed light/dark phase (meaning that lights are off during daytime and on during nighttime) […]. Since rats are normally active and eat their major part of their daily food intake during the dark period, rats are dosed in the morning right before lights are turned off. This set-up results in the lowest data variation and highest test sensitivity. The experiment is conducted in the rats' home cages and rats have free access to food and water throughout the acclimatization period and the experiment period. Each dose of derivative is tested in a group of 5-8 rats. A vehicle group of 6-8 rats is included in each set of testing. Rats are dosed once according to body weight with a 0.01-3 mg/kg solution administered intraperitoneally (ip), orally (po) or subcutaneously (sc). The time of dosing is recorded for each group. After dosing, the rats are returned to their home cages, where they then have access to food and water. The food consumption is recorded individually continuously by on-line registration or manually every hour for 7 hours, and then after 24 h and sometimes 48 h. At the end of the experimental session, the animals are euthanised.
The individual data are recorded in Microsoft excel sheets. Outliers are excluded after applying the Grubbs statistical evaluation test for outliers, and the result is presented graphically using the GraphPad Prism program.

[1] = Assay (III) ThT fibrillation assay for physical stability; format: physicochemical
How it was run: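 Freshly prepared formulations, pH-adjusted, with 1 μM ThT; four or eight replicates incubated at 37 °C under 960 rpm orbital shaking. Fluorescence (ex 444/em 485 nm) read every 20 min; […]. Peptide concentration measured by RP-HPLC before and after the run.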

[2] = biological target: T1, human amylin receptor (amylin 3(a) receptor: human calcitonin receptor + RAMP-3) (Homo sapiens, UniProt O60896+P30988); experiment: Assay (II)a functional CRE-luciferase assay, human amylin receptor; format: cell-based; conditions: Table 2; BHK amylin 3(a)-receptor/CRE-luc cells
T1 construct: expressed in transfected cells; host or cells: BHK570
T1 sequence (P30988 25-474): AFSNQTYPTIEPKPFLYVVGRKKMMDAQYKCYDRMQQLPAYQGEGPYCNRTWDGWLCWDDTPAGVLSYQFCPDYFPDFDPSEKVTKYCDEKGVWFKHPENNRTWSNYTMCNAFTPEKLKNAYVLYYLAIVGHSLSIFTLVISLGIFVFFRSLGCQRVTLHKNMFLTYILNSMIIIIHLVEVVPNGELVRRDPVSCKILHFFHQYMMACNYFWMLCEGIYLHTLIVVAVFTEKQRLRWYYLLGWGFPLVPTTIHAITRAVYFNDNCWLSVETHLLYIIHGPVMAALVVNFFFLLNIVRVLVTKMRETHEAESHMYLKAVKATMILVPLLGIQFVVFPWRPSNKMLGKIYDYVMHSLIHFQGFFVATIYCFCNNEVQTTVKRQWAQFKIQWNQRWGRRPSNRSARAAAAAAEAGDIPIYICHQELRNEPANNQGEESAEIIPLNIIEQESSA
T1 sequence (O60896 24-148 partner): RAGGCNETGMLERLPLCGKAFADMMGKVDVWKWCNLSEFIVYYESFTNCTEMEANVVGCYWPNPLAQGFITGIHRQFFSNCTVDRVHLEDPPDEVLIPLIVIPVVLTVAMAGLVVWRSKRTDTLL

[3] = Assay (IV) determination of solubility; format: physicochemical
How it was run: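 Polypeptide in water (~500 nmol/ml stock) was mixed 1:1 with 100 mM buffers from pH 3.0 to 8.0 (glycylglycine pH 3.0–5.0; bistrispropane pH 6.0–8.0). After 18 hours at room temperature, samples were centrifuged and the polypeptide remaining in solution was quantified by HPLC.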

[4] = biological target: T2, human calcitonin receptor (Homo sapiens, UniProt P30988); experiment: Assay (II)a functional CRE-luciferase assay, human calcitonin receptor; format: cell-based; conditions: Table 7; human calcitonin (CTa) receptor
T2 construct: expressed in transfected cells; host or cells: BHK570
T2 sequence (P30988 25-474): T1 sequence (P30988 25-474)

| Structure (SMILES) | Food intake reduction 0-24 h 3 nmol/kg (%) (food intake) | Food intake reduction 24-48 h 3 nmol/kg (%) (food intake) | ThT pH 4.0 lag time ([1]; Table 8) | ThT pH 4.0 lag time ([1]; Table 9) | ThT pH 4.0 lag time ([1]; ThT fibrillation assay) | ThT pH 4.0 lag time (h) ([1]; ThT fibrillation assay) | EC50 [2] | solubility at 18 h ([3]; bistrispropane buffer, pH 6, pH 6.0, read-out: Solubility pH 6.0) | solubility at 18 h ([3]; bistrispropane buffer, pH 6.5, pH 6.5, read-out: Solubility pH 6.5) | solubility at 18 h ([3]; bistrispropane buffer, pH 7, pH 7.0, 18 hours at room temperature, Table 3, read-out: Solubility pH 7.0) | solubility at 18 h ([3]; bistrispropane buffer, pH 7, pH 7.0, Table 8, read-out: Solubility pH 7.0) | solubility at 18 h ([3]; bistrispropane buffer, pH 7, pH 7.0, read-out: Solubility pH 7.0) | solubility at 18 h ([3]; bistrispropane buffer, pH 7.5, pH 7.5, read-out: Solubility pH 7.5) | solubility at 18 h ([3]; bistrispropane buffer, pH 8, pH 8.0, read-out: Solubility pH 8.0) | solubility at 18 h ([3]; glycylglycine buffer, pH 3, pH 3.0, read-out: Solubility pH 3.0) | solubility at 18 h ([3]; glycylglycine buffer, pH 4, pH 4.0, 18 hours at room temperature, Table 2, read-out: Solubility pH 4.0) | solubility at 18 h ([3]; glycylglycine buffer, pH 4, pH 4.0, read-out: Solubility pH 4.0) | solubility at 18 h ([3]; glycylglycine buffer, pH 5, pH 5.0, read-out: Solubility pH 5.0) | EC50 [4] |
| --- | --- | --- | --- | --- | --- | --- | --- | --- | --- | --- | --- | --- | --- | --- | --- | --- | --- | --- | --- |
| CC[C@H](C)[C@H](NC(=O)[C@@H]1CCCN1C(=O)CNC(=O)[C@H](Cc1ccccc1)NC(=O)[C@H](CC(N)=O)NC(=O)[C@H](CC(N)=O)NC(=O)[C@H](CO)NC(=O)[C@H](CO)NC(=O)[C@H](Cc1c[nH]cn1)NC(=O)[C@H](CCCNC(=N)N)NC(=O)[C@H](CC(C)C)NC(=O)[C@H](Cc1ccccc1)NC(=O)[C@H](CCC(=O)O)NC(=O)[C@H](C)NC(=O)[C@H](CC(C)C)NC(=O)[C@H](CCCNC(=N)N)NC(=O)[C@H](CCC(N)=O)NC(=O)[C@@H](NC(=O)[C@H](C)NC(=O)[C@@H]1CSSC[C@H](NC(=O)[C@H](CCCCN)NC(=O)CC[C@H](NC(=O)CCCCCCCCCCCCCCCCCCC(=O)O)C(=O)O)C(=O)N[C@@H](CC(N)=O)C(=O)N[C@@H]([C@@H](C)O)C(=O)N[C@@H](C)C(=O)N[C@@H]([C@@H](C)O)C(=O)N1)[C@@H](C)O)C(=O)N[C@@H](CC(C)C)C(=O)N1CCC[C@H]1C(=O)N1CCC[C@H]1C(=O)N[C@H](C(=O)N[C@@H](CC(N)=O)C(=O)N[C@H](C(=O)NCC(=O)N[C@@H](CO)C(=O)N[C@@H](Cc1c[nH]cn1)C(=O)N[C@H](C(=O)N[C@@H](Cc1ccc(O)cc1)C(N)=O)[C@@H](C)O)C(C)C)[C@@H](C)O [Example 57, N-alpha-[(S)-4-Carboxy-4-(19-carboxynonadecanoylamino)butyryl]-[Glu14,Arg17,His35]-pramlintide] ({C20 diacid-γGlu}-KCNTATCATQRLAEFLRHSSNNFGPILPPTNVGSHTY-NH2; disulfide 2-7 (inferred); C-terminus assumed) | 17% | 0% | >45 h | >45 h | >45 h | >45 h |  |  |  |  |  |  |  |  |  |  |  |  |  |
| CC[C@H](C)[C@H](NC(=O)[C@@H]1CCCN1C(=O)CNC(=O)[C@H](Cc1ccccc1)NC(=O)[C@H](CC(N)=O)NC(=O)[C@H](CC(N)=O)NC(=O)[C@H](CO)NC(=O)[C@H](CO)NC(=O)[C@H](Cc1c[nH]cn1)NC(=O)[C@H](Cc1c[nH]cn1)NC(=O)[C@H](CC(C)C)NC(=O)[C@H](Cc1ccccc1)NC(=O)[C@H](CCC(=O)O)NC(=O)[C@H](C)NC(=O)[C@H](CC(C)C)NC(=O)[C@H](CCCNC(=N)N)NC(=O)[C@H](CCC(N)=O)NC(=O)[C@@H](NC(=O)[C@H](C)NC(=O)[C@@H]1CSSC[C@H](NC(=O)[C@@H](N)CCCCNC(=O)CC[C@H](NC(=O)CCCCCCCCCCCCCCCCCCC(=O)O)C(=O)O)C(=O)N[C@@H](CC(N)=O)C(=O)N[C@@H]([C@@H](C)O)C(=O)N[C@@H](C)C(=O)N[C@@H]([C@@H](C)O)C(=O)N1)[C@@H](C)O)C(=O)N[C@@H](CC(C)C)C(=O)N1CCC[C@H]1C(=O)N1CCC[C@H]1C(=O)N[C@H](C(=O)N[C@@H](CC(N)=O)C(=O)N[C@H](C(=O)NCC(=O)N[C@@H](CO)C(=O)N[C@@H](Cc1c[nH]cn1)C(=O)N[C@H](C(=O)N[C@@H](Cc1ccc(O)cc1)C(N)=O)[C@@H](C)O)C(C)C)[C@@H](C)O [Example 87, N-epsilon1-[(S)-4-Carboxy-4-(19-carboxynonadecanoylamino)butyryl]-[Glu14,His17,His35]-pramlintide] (H-K([γGlu-C20 diacid])CNTATCATQRLAEFLHHSSNNFGPILPPTNVGSHTY-NH2; disulfide 2-7 (inferred)) | 66% | 47% | 25 h |  | 25 h | 25 h |  |  |  |  |  |  |  |  |  |  |  |  |  |
| CC[C@H](C)[C@H](NC(=O)[C@@H]1CCCN1C(=O)CNC(=O)[C@H](Cc1ccccc1)NC(=O)[C@H](CC(N)=O)NC(=O)[C@H](CCC(N)=O)NC(=O)[C@H](CO)NC(=O)[C@H](CO)NC(=O)[C@H](Cc1c[nH]cn1)NC(=O)[C@H](Cc1c[nH]cn1)NC(=O)[C@H](CC(C)C)NC(=O)[C@H](Cc1ccccc1)NC(=O)[C@H](CCC(=O)O)NC(=O)[C@H](C)NC(=O)[C@H](CC(C)C)NC(=O)[C@H](CCCNC(=N)N)NC(=O)[C@H](CCC(N)=O)NC(=O)[C@@H](NC(=O)[C@H](C)NC(=O)[C@@H]1CSSC[C@H](NC(=O)CNC(=O)CC[C@H](NC(=O)CCCCCCCCCCCCCCCCCCC(=O)O)C(=O)O)C(=O)N[C@@H](CC(N)=O)C(=O)N[C@@H]([C@@H](C)O)C(=O)N[C@@H](C)C(=O)N[C@@H]([C@@H](C)O)C(=O)N1)[C@@H](C)O)C(=O)N[C@@H](CC(C)C)C(=O)N1CCC[C@H]1C(=O)N1CCC[C@H]1C(=O)N[C@H](C(=O)N[C@@H](CC(N)=O)C(=O)N[C@H](C(=O)NCC(=O)N[C@@H](CO)C(=O)N[C@@H](CCC(N)=O)C(=O)N[C@H](C(=O)N1CCC[C@H]1C(N)=O)[C@@H](C)O)C(C)C)[C@@H](C)O [Example 137, N-alpha-[(S)-4-Carboxy-4-(19-carboxynonadecanoylamino)butyryl]-[Gly1,Glu14,His17,Gln21,Gln35,Pro37]-pramlintide] ({C20 diacid-γGlu}-GCNTATCATQRLAEFLHHSSQNFGPILPPTNVGSQTP-NH2; disulfide 2-7) |  |  | 29 h |  | 29 h | 29 h | 0.121 nM | 192 µM (≈ 835 µg/mL) | > 200 µM | > 200 µM | > 200 µM | > 200 µM | > 200 µM | > 200 µM | > 200 µM | > 200 µM | > 200 µM | > 200 µM | 0.072 nM |
